Values joined by “and” are separate entries in the source; they are usually repeats but may differ in a detail not shown here. Equal values may be shown once.
System: treatment naïve acute myeloid leukemia (TN-AML)
Experiment: Phase 3 randomized trial Compound I-1 vs treatment choice: CR, OS, PFS, EFS, subgroup analyses
Format: in vivo, human
Settings: for EFS HR (95% CI) / PFS HR (95% CI): Compound I-1/TC
Procedure: A Phase 3 randomized trial comparing Compound I-1 to a treatment choice of azacitidine, decitabine, or Low Dose Ara-C(LDAC) in patients with AML was performed.
The patients were randomized 1:1 to either Compound I-1 (60 mg/m^2/d subcutaneous injection for 5 days of a 28-day cycle), or a preselected treatment choice of azacitidine, decitabine, or LDAC at standard doses. AML diagnosis and response status were assessed by an independent blinded central pathologist. CR and OS were the co-primary endpoints.
Compound I-1 powder was reconstituted at a concentration of 100 mg/mL and administered subcutaneously (SC) at a dose of 60 mg/m^2 daily on days 1-5 of a 28-day cycle.
LDAC was given at a dose of 20 mg SC twice daily (BID) on days 1-10 of a 28-day cycle. Decitabine was given at a dose of 20 mg/m^2 as a 1-hour intravenous (IV) infusion on days 1-5 of a 28-day cycle. Azacitidine was given IV or SC daily on days 1-7 of a 28-day cycle at a dose of 75 mg/m^2. Other TC treatment parameters such as dose adjustment guidelines followed locally approved prescribing information and institutional standard practice.
Two co-primary endpoints were used: complete response (CR) rate based on modified International Working Group (IWG) 2003 AML Response Criteria and OS (the number of days from randomization to death). Secondary endpoints included CRc (CR+CR with incomplete blood count recovery [CRi]+CR with incomplete platelet recovery [CRp]) rate, number of days alive and out of the hospital (NDAOH), progression-free survival (PFS), health related quality of life (QOL) by EQ-5D (consisting of the EQ-5D-5L descriptive system and the EQ Visual Analogue Scale [EQ VAS]), duration of CR (the time from first CR to time of relapse), incidence and severity of adverse events (AEs), and 30- and 60-day all-cause mortality.
CR rate was compared between Compound I-1 and TC groups using Cochran Mantel-Haenszel test at an alpha of 0.04, stratified by the stratification factors used at randomization. OS curves were estimated using Kaplan-Meier (K-M) method and formally compared between Compound I-1 and TC groups using a 2-sided stratified log-rank test, stratified by the same stratification factors used at randomization. Sensitivity analyses were conducted for CR rate and OS to evaluate the robustness of the treatment effect.
CRc rate was compared between treatment groups using a Cochran Mantel-Haenszel test with the same stratification variable as for CR and OS. NDAOH was compared between treatment groups using an analysis of variance model (ANOVA) with stratification variables used as fixed factors. PFS was compared between treatment groups using a stratified log-rank test.
The number of RBC and platelet transfusions up to Day 180 were summarized descriptively. 95% CI of the mean was also provided. The EQ-5D-5L index values and EQ VAS up to Day 180 were analyzed descriptively and using a mixed model approach for repeated measures.
Data obtained during the trial of EXAMPLE 4 were further analyzed for selected subgroups of patients including patients who achieved CR in patients who received at least 4 or 6 treatment cycles.
TN-AML patients ineligible for intensive chemotherapy (IC) due to age ≥75 y, coexisting morbidities, or ECOG PS 2-3 were randomized 1:1 to either Compound I-1 (60 mg/m^2/d SC for 5-days Q28 days) or a preselected treatment choice (TC) of azacitidine (AZA), decitabine (DEC), or low-dose Ara-C(LDAC) at the prescribed dosing schedule. AML diagnosis and response status were assessed by an independent central pathologist blinded to randomization assignment. Complete response (CR) and overall survival (OS) were the co-primary endpoints. The patients' characteristics, number of treatment cycles, reasons for treatment discontinuation, CR, and OS including analyses by number of cycles received including prospective subgroups, and OS analyses of responders and non-responders were analyzed. […]

[1] = number of days alive and out of the hospital
[2] = patients with at least 4 cycles
[3] = patients with at least 4 cycles (n = 476)
[4] = patients with at least 6 cycles
[5] = patients with at least 6 cycles (n = 375)

Nc1ncn([C@H]2CC(OP(=O)(O)OC[C@H]3O[C@@H](n4cnc5c(=O)[nH]c(N)nc54)CC3O)[C@@H](CO)O2)c(=O)n1 (stereo partly shown) [Compound I-1]
CR odds ratio (logistic regression) (Compound I-1 vs TC): 1.14 | CR rate Treatment Difference (Compound I-1 vs TC): 1.92% | CRc rate Treatment Difference (Compound I-1 vs TC): 0.39 | NDAOH LS Mean Treatment Difference (Compound I-1 vs TC): −7.8 | Overall survival hazard ratio (Compound I-1 vs each treatment choice): less than 1 | 12-month survival rate (ITT): 37% | 24-month survival rate (ITT): 18% | Median PFS (ITT): 5.3 months | Overall Survival K-M Estimate, 25th percentile (ITT): 71.0 days | Overall Survival K-M Estimate, 75th percentile (ITT): 584.0 days | Overall Survival K-M Estimate, Median (ITT): 213 days and 213.0 days | PFS K-M Estimate, Median (ITT): 159 days | Survival, 75th percentile (ITT): 19.5 months | Median EFS (ITT Population (n = 815)): 5.1 months | Median OS (ITT Population (n = 815)): 7.1 months | EFS HR (95% CI) (ITT Population): 0.85 (0.74-0.98), p 0.02 | PFS HR (ITT, Compound I-1 vs TC): 0.99 (0.86-1.15), p 0.93 | 12-month survival rate (ITT, as fraction): 0.37 | 24-month survival rate (ITT, as fraction): 0.18 | CRc (CR + CRi + CRp) (ITT, N = 408 / 407): 93 subjects | Complete Response (CR) (ITT, N = 408 Compound I-1, N = 407 TC): 79 subjects | Overall survival hazard ratio (baseline TP53 mutations (94 patients), Compound I-1 vs treatment choice): 1.8 | Median duration of CR (complete responders): 7.2 months | EQ VAS LS mean change from baseline (first 6 months): 0.87 | Platelet transfusions, mean (first 6 months): 12.5 units | RBC transfusions, mean (first 6 months): 16.2 units | Index EQ-5D-5L score LS mean difference (first 6 months, Compound I-1 vs TC): −0.019 | Mean NDAOH over 6 months (in vivo): 3.3 months | NDAOH per patient-year rate (in vivo): 297 days | One-year survival rate (landmark analysis (approximately 4 months), at least 4 cycles): 51% | Overall survival hazard ratio (landmark analysis, greater than 3 treatment cycles, Compound I-1 vs TC): 0.78 | Treatment Discontinuation Before 4 Cycles: Progressive Disease (n = 408 I-1, n = 407 TC): 7.6% | Treatment Discontinuation Before 6 Cycles: Progressive Disease (n = 408 I-1, n = 407 TC): 10.8% | OS HR (non-responders, at least 6 cycles, Compound I-1 vs TC): 0.73 | NDAOH in First 6 Months, LS Mean [1]: 98.9 | NDAOH in First 6 Months, Mean [1]: 98.1 | Median EFS (patients who achieved an objective response (CR, CRp, CRi, or PR)): 17.4 m | EFS HR (patients who achieved an objective response, Compound I-1 vs TC): 0.68 | Median OS [2]: 15.6 months | CR Rate (patients with at least 4 cycles (n = 235 I-1; n = 241 TC)): 33.6% | Median EFS [3]: 12.1 months | Median PFS [3]: 10.3 months | EFS HR (95% CI) [2]: 0.74 (0.61-0.9), p 0.002 | PFS HR (95% CI) [2]: 0.88 (0.73-1.06), p 0.17 | OS HR (95% CI) (patients with at least 4 cycles, Compound I-1 vs TC): 0.78 (0.64, 0.96), p 0.02 and 0.78 (0.64-0.96), p 0.02 | Median OS [4]: 19.5 months | CR Rate (patients with at least 6 cycles (n = 187 I-1; n = 188 TC)): 40.1% | Median EFS [5]: 14.9 months | Median PFS [5]: 11.9 months | EFS HR (95% CI) [4]: 0.69 (0.56-0.86), p 0.001 | PFS HR (95% CI) [4]: 0.86 (0.7-1.07), p 0.17 | OS HR (95% CI) (patients with at least 6 cycles, Compound I-1 vs TC): 0.69 (0.54, 0.88), p 0.002 and 0.69 (0.54-0.88), p 0.002 | OS HR (responders (CR, CRp, CRi, or PR), at least 6 cycles, Compound I-1 vs TC): 0.66 | OS HR (subjects who achieved any CR (CR, CRp, or CRi), Compound I-1 vs TC, post hoc): 0.72 | Overall survival hazard ratio (without TP53 mutations (696 patients), Compound I-1 vs treatment choice): 0.86

Reference: US20200352976A1, “HYPOMETHYLATING AGENTS FOR USE IN TREATMENT OF CANCER” (Otsuka Pharmaceutical Co., Ltd, priority 2019, published 2020)
